Measured values from patent publication US20070129342A1, “Compositions Containing Ansamycin” (priority 2005, published 2007).
Like-named read-outs stand apart in the source and are kept apart here.

Columns and labels:
[1] = assay type: physicochemical
Protocol: It should be noted that other secondary emulsifiers (e.g., dimyristylphosphatidylglycerol (DMPG), Solutol HS15, and Tween 80) were tested at refrigerated temperature for droplet size stability improvement.

[2] = adult patients, cited from earlier work; for Cmax: read-out: Plasma Cmax

In the case of `CCCCCCCCCCCCCC(=O)OCC(COP(=O)(O)OCC(O)CO)OC(=O)CCCCCCCCCCCCC` (centres unmarked) [DMPG, dimyristylphosphatidylglycerol], the “effect of secondary emulsifier on droplet size stability of the emulsion” value (“effect of secondary emulsifier” below) [1] is reported as “resulted in a viscous emulsion that would be difficult to draw a syringe”.
For `C=CCNC1=C2C[C@@H](C)C[C@H](OC)[C@H](O)[C@@H](C)/C=C(\C)[C@H](OC(N)=O)[C@@H](OC)/C=C\C=C(/C)C(=O)NC(=CC1=O)C2=O` [Formulation 17-AAG, 17-(allylamino)-17-demethoxygeldanamycin], the Cmax ([2]; at 40 mg/m^2) is given as 1860 ± 660 nM, the Cmax ([2]; at 56 mg/m^2) is given as 3170 ± 1310 nM and the “maximum tolerated dose (MTD)” value ([2]; daily 1-hour infusion for 5 days every three weeks) is given as 40 mg/m^2. For the same compound, the clearance ([2]; mean±SD) was 41.0 ± 13.5 L/h and the terminal half-life ([2]; mean±SD) was 2.5 ± 0.5 h.
With `CCCCCCCC/C=C\CCCCCCCC(=O)O` [oleic acid, cis-9-octadecenoic acid] the “effect of secondary emulsifier” value [1] was “showed improved stability”.
For Tween 80, the “effect of secondary emulsifier” value [1] was “did not improve the droplet size stability”.
